Data from patent US20220204491A1, “FXR (NR1H4) MODULATING COMPOUNDS” (Gilead Sciences, Inc., priority 2019, published 2022).

Key:
[1] = molecular target: T1, FXR ligand binding domain (Homo sapiens, UniProt Q96RI1); test: Mammalian one hybrid (M1H) Gal4 reporter assay in HEK293 cells; assay type: cell-based; conditions: Gal4-FXR-LBD luciferase reporter, 16 hours
T1 construct: expressed in transfected cells; host or cells: HEK293 (DSMZ), transient transfection of pCMV-BD-FXR-LBD, pFR-Luc and pRL-CMV
T1 sequence (Q96RI1 187-472 isoform Q96RI1-2): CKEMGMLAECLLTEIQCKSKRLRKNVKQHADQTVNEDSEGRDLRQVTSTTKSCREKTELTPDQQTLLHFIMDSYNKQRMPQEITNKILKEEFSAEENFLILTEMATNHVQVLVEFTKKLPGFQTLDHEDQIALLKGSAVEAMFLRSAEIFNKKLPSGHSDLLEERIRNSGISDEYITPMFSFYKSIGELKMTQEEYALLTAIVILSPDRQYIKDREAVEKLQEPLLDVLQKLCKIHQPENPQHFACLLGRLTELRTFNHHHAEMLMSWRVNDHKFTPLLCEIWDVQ
Description: Determination of a ligand mediated Gal4 promoter driven transactivation to quantify ligand binding mediated activation of FXR was performed as follows.
The cDNA part encoding the FXR ligand binding domain was cloned into vector pCMV-BD (Stratagene) as a fusion to the yeast GAL4 DNA binding domain under the control of the CMV promoter. The amino acid boundaries of the ligand binding domain were amino acids 187-472 of Database entry NM_005123 (RefSeq). The plasmid pFR-Luc (Stratagene) was used as the reporter plasmid, containing a synthetic promoter with five tandem repeats of the yeast GAL4 binding sites, driving the expression of the Photinus pyralis (American firefly) luciferase gene as the reporter gene. In order to improve experimental accuracy the plasmid pRL-CMV (Promega) was cotransfected. pRL-CMV contains the constitutive CMV promoter, controlling the expression of the Renilla reniformis luciferase. All Gal4 reporter gene assays were done in HEK293 cells (obtained from DSMZ, Braunschweig, Germany) grown in MEM with L-Glutamine and Earle's BSS supplemented with 10% fetal bovine serum, 0.1 mM nonessential amino acids, 1 mM sodium pyruvate, and 100 units Penicillin/[…] per mL at about 37° C. in 5% CO2. Medium and supplements were obtained from Invitrogen. For the assay, 5×10^5 cells were plated per well in 96 well plates in 100 μl per well MEM without Phenol Red and L-Glutamine and with Earle's BSS supplemented with 10% charcoal/dextran treated FBS (HyClone, South Logan, Utah), 0.1 mM nonessential amino acids, 2 mM glutamine, 1 mM sodium pyruvate, and 100 units Penicillin/[…] per mL, incubated at about 37° C. in 5% CO2. The following day the cells were >90% confluence. […] Cells were incubated for additional 16 hours before firefly and renilla luciferase activities were measured sequentially in the same cell extract using a Dual-Light-Luciferase-Assay system (Dyer et al., Anal. Biochem. 2000, 282, 158-161). […]

[2] = molecular target: T2, CYP2B6 (Homo sapiens, UniProt P20813); test: CYP2B6 inhibition in human liver microsomes (bupropion probe); assay type: in vitro ADME; conditions: human liver microsomes 0.1 mg/mL, bupropion 110 μM, 0.1-25 μM compound
T2 construct: from tissue; host or cells: human liver microsomes
T2 sequence (P20813 1-491): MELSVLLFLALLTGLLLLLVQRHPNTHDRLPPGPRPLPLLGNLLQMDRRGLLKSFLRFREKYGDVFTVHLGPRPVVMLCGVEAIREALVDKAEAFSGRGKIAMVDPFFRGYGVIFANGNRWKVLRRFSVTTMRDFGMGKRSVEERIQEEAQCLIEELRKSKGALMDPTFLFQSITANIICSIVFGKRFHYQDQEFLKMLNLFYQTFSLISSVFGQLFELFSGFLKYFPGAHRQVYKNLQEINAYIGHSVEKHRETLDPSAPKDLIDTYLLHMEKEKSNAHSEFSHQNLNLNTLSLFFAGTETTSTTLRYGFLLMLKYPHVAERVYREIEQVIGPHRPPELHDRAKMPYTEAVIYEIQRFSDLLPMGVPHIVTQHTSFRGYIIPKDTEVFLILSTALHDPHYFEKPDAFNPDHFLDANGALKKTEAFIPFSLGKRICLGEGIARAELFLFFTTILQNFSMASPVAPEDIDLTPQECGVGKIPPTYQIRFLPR
Description: The compound of Formula (I) (Example 1) was assessed for CYP2C8, CYP3A4, and CYP2B6 inhibition and was compared against Comparative Example 1.
Six test compound concentrations (0.1, 0.25, 1, 2.5, 10, 25 μM in DMSO; final DMSO concentration 0.3%) are incubated with human liver microsomes (0.1 mg/mL) and NADPH (1 mM) in the presence of the probe substrate bupropion (110 μM) for 5 min at 37° C. The selective CYP2B6 inhibitor, ticlopidine, is screened alongside the test compounds as a positive control.
For each of the CYP2B6, CYP2C8, and CYP3A4 incubations, the reactions were terminated by methanol addition. The samples were then centrifuged and analyzed by LC-MS/MS. Formic acid in deionised water (final concentration 0.1%) containing internal standard was added to the final sample prior to analysis. A decrease in the formation of the metabolites compared to vehicle control was used to calculate IC50.

EC50 [1] | CYP2B6 inhibition [2] | SMILES
5.5 nM | did not inhibit CYP2B6 | O=C(O)c1ccc(N2CC(O)(c3ccc(OCc4c(-c5c(Cl)cc(F)cc5Cl)noc4C4CC4)cc3Cl)C2)nc1 [Example 1, 6-(3-(2-chloro-4-((5-cyclopropyl-3-(2,6-dichloro-4-fluorophenyl)isoxazol-4-yl)methoxy)phenyl)-3-hydroxyazetidin-1-yl)nicotinic acid]
1.2 nM | inhibited CYP2B6 | O=C(O)c1cnc(N2CC(O)(c3ccc(OCc4c(-c5c(Cl)cc(F)cc5Cl)noc4C4CC4)cc3Cl)C2)c(F)c1 [Comparative Example 1, 6-(3-(2-chloro-4-((5-cyclopropyl-3-(2,6-dichloro-4-fluorophenyl)isoxazol-4-yl)methoxy)phenyl)-3-hydroxyazetidin-1-yl)-5-fluoronicotinic acid]
2 nM |  | O=C(O)c1ccc(N2CC(O)(c3ccc(OCc4c(-c5c(Cl)cccc5Cl)noc4C4CC4)cc3Cl)C2)nc1 [Comparative Example 2]
